What was measured:
Format in all cases: physicochemical
[1] = Concentration studies: stability of pyruvic acid solutions in water at higher concentrations
Description: Each of these commercial solutions were subjected to light for 6-weeks at temperatures ranging from about 22° C. to about 26° C. At each of the concentrations listed below, it was discovered that the pyruvic acid solutions were stable.

[2] = Shelf storage stability of [1-^13C]pyruvic acid in water, compared by ^1H and ^13C NMR spectra; conditions: 0.025M in water; for Shelf stability (NMR spectra unchanged): all conditions of Table 1
Description: Samples of isotopically labeled [1-^13C]pyruvic acid, having Formula VI and synthesized as discussed immediately below, were subjected to various conditions as depicted in Table 1, in order to establish the compound's shelf storage stability.
The resulting [1-^13C]pyruvic acid was tested as follows in Table 1:
^1H and ^13C NMR spectra of the distilled [1-^13C]pyruvic acid in water (0.025M) were acquired at the onset of the study and prior to exposing the samples to the various conditions specified in Table 1. ^1H and ^13C NMR spectra were again acquired for each of the samples after being exposed to the aforementioned conditions on a weekly basis for 12-weeks. The spectra acquired after exposure were compared visually and appeared to remain unchanged as compared with the spectra acquired prior to exposure, i.e. the spectra were as expected for [1-^13C]pyruvic acid in water. As such, it was concluded that each of the samples were shelf stable. Similarly, ^1H and ^13C NMR spectra acquired after 17-weeks of exposure remained unchanged as compared with the spectra acquired prior to exposure.

[3] = Titration of aqueous sample with sodium hydroxide, composition by HPLC (dimer formation); conditions: pH of about 6.2 after titration with sodium hydroxide
From the text: The molarity of sample 4 was confirmed to be 0.025M by titrating the aqueous sample with sodium hydroxide. […] It was also discovered that at pHs greater than 5.8, such as at a pH of about 6.2, some of the pyruvic acid was present in the form of a dimerized sodium salt. […] As such, it was discovered that to minimize dimmer formation, it may be necessary to control the pH of [1-^13C]pyruvate solutions, and in particular, any aqueous solution should be maintained at a pH of about 6.5 or less, more preferably 6.0 or less, and even more preferably 5.8 or less.

[4] = Sample 3: Room temperature (about 22° C. to about 26° C.), Dark
[5] = Sample 4: Room temperature (about 22° C. to about 26° C.), Light

SMILES	Stability of solutions in water ([1]; each of the concentrations of Table 2, light, 6-weeks, about 22° C. to about 26° C.)	Shelf stability, 12 weeks ([2]; Sample 1: −10° C., Dark)	Shelf stability, 17 weeks ([2]; Sample 1: −10° C., Dark)	Shelf stability, 12 weeks ([2]; Sample 2: 4° C., Dark)	Shelf stability, 17 weeks ([2]; Sample 2: 4° C., Dark)	Shelf stability, 12 weeks [2, 4]	Shelf stability, 17 weeks [2, 4]	Shelf stability, 12 weeks [2, 5]	Shelf stability, 17 weeks [2, 5]	Shelf stability (NMR spectra unchanged) ([2]; 17-weeks)	Shelf stability (NMR spectra unchanged) ([2]; weekly for 12-weeks)	Stability of solutions in water at higher concentrations (believed) ([1]; at least the concentrations of Table 2 in water, inferred from commercial pyruvic acid)	Content of dimerized [1-^13C]pyruvate salt by HPLC [3]	Content of sodium [1-^13C]pyruvate by HPLC [3] [%]	Share of the pyruvic acid accounted for by dimerized salt [3]
CC(=O)C(=O)O [Pyruvic acid, 2-oxopropanoic acid, reference compound]	stable														
CC(=O)[13C](=O)O [[1-^13C]pyruvic acid]		Stable	Stable	Stable	Stable	Stable	Stable	Stable	Stable	shelf stable	shelf stable	stable	2-4%	89	4-6%
